Assay [1] has as its system osteoarthritis. As to conditions: cited from earlier work; for clinical difference between the high potency narcotics and tramadol: human, in vivo.
Assay [2] relates to osteoarthritis syndrome in both knees. The assay is described as follows: Composition given by intra-articular injection in one knee, other knee left untreated. The assay is classed as in vivo, human. As to conditions: patient. The method, then:
A patient is diagnosed with osteoarthritis syndrome in both knees. […] A patient is diagnosed with osteoarthritis syndrome in both knees. A composition comprising the ACE inhibitor enalapril is administered by intra-articular injection in one knee while the other knee is left untreated. […] A patient is diagnosed with osteoarthritis syndrome in both knees. A composition comprising the angiotensin receptor blocker losartan is administered by intra-articular injection in one knee while the other knee is left untreated.

For assay [3] the test system is unchanged. Nature of the assay: Composition applied to the skin in the region of one knee, other knee left untreated. The format is in vivo, human. As to conditions: patient, topical application to skin in the region of one knee. An excerpt: A patient is diagnosed with osteoarthritis syndrome in both knees.
A patient is diagnosed with osteoarthritis syndrome in both knees. A composition comprising the ACE inhibitor enalapril is directly applied to the skin in the region of one knee while the other knee is left untreated.
A patient is diagnosed with osteoarthritis syndrome in both knees. A composition comprising the angiotensin receptor blocker losartan is directly applied to the skin in the region of one knee while the other knee is left untreated.

The test system of assay [4] is osteoarthritis. As to conditions: 6 trials, 1501 participants, cited from earlier work.

Where two headings read alike, the source gives them in different places.

Take `CC(=O)Nc1ccc(O)cc1` [Tylenol]: the clinical effect result in the assay with osteoarthritis [1] (meta-analysis of 74 randomized clinical trials, 58556 patients) was “did not have a clinically relevant effect”.
Regarding `CCOC(=O)[C@H](CCc1ccccc1)N[C@@H](C)C(=O)N1CCC[C@H]1C(=O)O` [enalapril], the “symptoms of osteoarthritis syndrome, treated knee versus untreated knee” value in assay [2] and in assay [3] was “reduced symptoms of osteoarthritis syndrome” in each case.
For the compound `N[C@H]1C(O)O[C@H](CO)[C@@H](O)[C@@H]1O.O=S(=O)(O)O` (stereo partly shown) [glucosamine sulfate], the pain and function entry in the assay on osteoarthritis [1] (industry-sponsored study of 604 patients) was “statistical significant reduction in pain and increase in function”. For the same compound, the effect versus placebo entry in the assay with osteoarthritis [1] (meta-analysis of 25 randomized placebo controlled clinical trials, 3458 patients) is reported as “failed to find any significant effects”. Also, the “preventive effect on osteoarthritis” value in the assay with osteoarthritis [4] (after 3 years, benefit clinically irrelevant) is listed as “small statistical effect”; with osteoarthritis [4] (after one year), “no preventive effect”.
For `CCCCc1nc(Cl)c(CO)n1Cc1ccc(-c2ccccc2-c2nn[nH]n2)cc1` [losartan], the “symptoms of osteoarthritis syndrome, treated knee versus untreated knee” value in assay [2] and in assay [3] was “reduced symptoms of osteoarthritis syndrome” each time.
For `CN1CC[C@]23c4c5ccc(O)c4O[C@H]2[C@@H](O)C=C[C@H]3[C@H]1C5` [morphine], the “clinical difference between the high potency narcotics and tramadol” value in the assay on osteoarthritis [1] is “no clinically observable difference”.
As to `COc1ccc2c3c1O[C@H]1C(=O)CC[C@@]4(O)[C@@H](C2)N(C)CC[C@]314` [oxycodone], in the assay on osteoarthritis [1], the “clinical difference between the high potency narcotics and tramadol” value is on record as “no clinically observable difference”.
Turning to `COc1cccc(C2(O)CCCCC2CN(C)C)c1` (stereo not shown) [tramadol], the “clinical difference between the high potency narcotics and tramadol” value in the assay on osteoarthritis [1] is given as “no clinically observable difference”.
chondroitin sulfate: the “effect on pain and function” value in the assay with osteoarthritis [1] (meta-analysis of 20 randomized clinical studies, 3846 patients, called negligible) was 0.003%.

Values taken from patent US20210290606A1, “METHOD TO PREVENT AND TREAT OSTEOARTHRITIS BY CALCIUM CHANNEL BLOCKERS, ANGIOTENSIN CONVERTING ENZYME INHIBITORS, AND ANGIOTENSIN RECEPTOR BLOCKERS” (priority 2018, published 2021).
